The source of these data is patent publication US10683382B2, “Copolymer comprising a lignin or lignin derivative and a poly(alkylene oxide) alkyl ether (meth)acrylate, and a hydrogel comprising the copolymer” (AGENCY FOR SCIENCE, TECHNOLOGY AND RESEARCH, priority 2015, dated 2020).

This data set has as its system human dermal fibroblasts. The data set can be described thus: MTT assay, cell viability. Particulars: 1, 5, 10 μM; up to 72 hours. Format: cell-based. Here is the method: MTT assays were performed to assess the metabolic activity of human dermal fibroblasts. Human dermal fibroblasts were seeded in 96-well plates (Costar, USA) at a density of 1×10^4 cells/mL. After 24 hours of incubation, the medium was replaced by the Lig-PEG1, Lig-PEG2, Lig-PEG4, α-CD and P(PEGMA) (Mn=18 000 g/mol) aqueous solutions at concentrations of 10 μM, 5 μM and 1 μM, respectively. The cells were then incubated for 24 hours, 48 hours and 72 hours, respectively. After the designated time intervals, the wells were washed twice with 1×PBS buffer, and 100 μL of freshly prepared MTT (0.5 mg/mL) solution in culture medium was added to each well. The MTT medium solution was carefully removed after 3 hours incubation in the incubator. DMSO (100 μL) was then added into each well, and the plate was gently shaken for 10 minutes at room temperature to dissolve all precipitates formed. The absorbance of MTT at 570 nm was monitored by the microplate reader (Genios Tecan, Switzerland). Cell viability was expressed by the ratio of absorbance of the cells incubated with polymer solution to that of the cells incubated with culture medium only.
In general terms: Tetrazolium dyes change colour on reduction, which living cells bring about.

For `OC[C@H]1O[C@@H]2O[C@H]3[C@H](O)[C@@H](O)[C@@H](O[C@H]4[C@H](O)[C@@H](O)[C@@H](O[C@H]5[C@H](O)[C@@H](O)[C@@H](O[C@H]6[C@H](O)[C@@H](O)[C@@H](O[C@H]7[C@H](O)[C@@H](O)[C@@H](O[C@H]1[C@H](O)[C@H]2O)O[C@@H]7CO)O[C@@H]6CO)O[C@@H]5CO)O[C@@H]4CO)O[C@@H]3CO` [α-CD, α-cyclodextrin], the cytotoxicity result is reported as “no cytotoxicity”.
